Test results as given in patent US7683061B2, “Triazine dimers for the treatment of autoimmune diseases” (ProMetic BioSciences Inc., priority 2003, dated 2010).
Read-outs that look alike come from different tables or passages of the source.

Tests used:
[1] = system: TNFα-induced apoptosis, WEHI-13VAR cells; test: TNFα induced apoptosis in WEHI-13VAR cells (MTT); assay type: cell-based, murine; settings: Mus musculus; for inhibition at 10 µM: 1 × 10^−5M; for inhibition at 20 µM: 2 × 10^−5M; for inhibition at 40 µM: 4 × 10^−5M; for inhibition at 5 µM: 5 × 10^−6M
Procedure: Effect of compounds on TNFα-induced apoptosis was measured by a standard biological assay using WEHI-13VAR cells. These cells undergo apoptosis when they are incubated in the presence of TNFα and actinomycin D. 2×10^4 WEHI-13VAR cells were incubated in RPMI supplemented with 1% sodium pyruvate and 10% FBS, overnight at 37° C. for cell adherence. The cells were then cultured in the presence of 1 μg/mL of actinomycin D (to inhibit protein synthesis) and 0.04 nM TNFα with or without compounds at 37° C. After 16-24 h, 50 μL of a solution of 2 mg/mL of MTT was added to each well and the plate was then incubated for 4 h at 37° C. Only viable cells metabolize MTT to form formazan salt, which is detectable by the measurement of absorbance at 570 nm. After the incubation, the plate was inverted to remove medium and dead cells. 150 μL DMSO was added to each well to stop the reaction and solubilize the formazan salt. Optical density was read on a EL 800, universal Microplate reader (Bio-Tek). A decrease in the optical density is direct evidence of cell apoptosis induced by TNFα. Compounds were also compared to the activity of an anti-TNFα neutralizing antibody.

[2] = system: TNFα production, J774A-1 cells; test: LPS-induced TNFα production in J774A-1 cells (ELISA); assay type: cell-based; settings: Mus musculus, J774.A1, 24 h, read-out: IC50 (μM), inhibition of TNFα released by LPS induction
Procedure: Effect of compounds on TNFα production was measured by ELISA using J774-1 cells stimulated by LPS. J774-1 cells were cultured in the presence or absence of LPS and compound. Cells were cultured at 37° C. for 24 h and thereafter the supernatants were collected for the determination of the concentration of TNFα by ELISA as recommended by the manufacturer (BD Biosciences). Data was analyzed in Microsoft Excel and the concentration of compound which inhibits 50% of TNFα production (IC50) was calculated using Prism software.

[3] = molecular target: T1, TNFα / p55 TNFα receptor (CD120a) (Homo sapiens, UniProt P01375); test: Binding ELISA: sTNF-R1 binding to plastic coated TNF-α; settings: for inhibition at 100 µM: 10^−4 M; for inhibition at 10 µM: 10^−5 M
Procedure: (§1) Compounds were tested for their ability to bind to TNFα or inhibit the interaction of TNFα with its respective receptors; p55 and p75 TNFα receptor. Three binding ELISA assays were undertaken as described by Mancini et al. Biochemical Pharmacology 58, 851-859 (1999). TNFα or receptor (1 μg/mL) was coated on a 96-well plate Maxisorp, overnight at 4° C. After incubation, unbound TNFα or p55 TNFα receptor or p75 TNFα receptor was removed and the plate washed three times with PBS. The plate was then incubated with 100 μL/well of a 2% BSA solution for 1 h at 37° C. to block non specific protein binding. After incubation, the plate was washed three times with PBS. Biotinylated recombinant human TNFα p55 or p75 receptor or biotinylated recombinant human TNFα was added to the wells in the presence or absence of compounds. The plate was incubated for 1 h at 37° C. After incubation, the plate was washed three times with PBS to remove unbound labeled p55 or p75 receptor or recombinant human TNFα. 100 μL of avidin-HRP (diluted 1/2000 in PBS-0.1% BSA) was added to each well and incubated 1 h at 37° C. Bound p55 or p75 receptor or recombinant human TNFα was detected by the addition of 200 μL of 3,3′,5,5′-tetramethylbenzidine (TMB) per well for 15 min. The plate was then read at 655 nm on a EL 800 universal Microplate reader (Bio-Tek, Mississauga, Canada). Data was analyzed in Microsoft Excel and recorded as the percentage of inhibition of p55 or p75 binding to TNFα or TNFα binding to RI (p55) or RII (p75).

[4] = molecular target: T1, TNFα / p55 TNFα receptor (CD120a); test: Binding ELISA: TNF-α binding to plastic coated TNF-R1; settings: for inhibition at 100 µM: 10^−4 M; for inhibition at 10 µM: 10^−5 M
Procedure: as §1

[5] = molecular target: T2, TNFα / p75 TNFα receptor (CD120b) (Homo sapiens, UniProt P01375); test: Binding ELISA: TNF-α binding to plastic coated TNF-R2; settings: for inhibition at 100 µM: 10^−4 M; for inhibition at 10 µM: 10^−5 M
Procedure: as §1

[6] = molecular target: T3, Fc portion of human IgG (binding of protein A to human IgG); test: Competitive protein A binding ELISA
T3 construct: fused on or other part: Horseradish peroxidase chemically conjugated to the IgG (HRP-IgG)
Procedure: As described above, this assay evaluates the ability of the exemplified compounds to mimic protein A. Such compounds can bind to the Fc portion of human IgG as ascertained by the inhibition of binding of protein A to human IgG. The competitive protein A binding ELISA assay was performed on a 96-well plate Maxisorp surface to enhance the binding of protein A to the bottom of the plate. The wells were coated with 100 μL of protein A (0.8 μg) and incubated overnight at 4° C. After incubation, unbound protein A was removed by three washes with phosphate buffer saline (PBS). The plate was then incubated with 100 μL/well of a 2% solution of bovine serum albumin (BSA) for 1 h at 37° C. to block non specific protein binding. After incubation, the plate was washed to times with PBS. 50 μL of compound or protein A, diluted in PBS or PBS-20% DMSO at appropriate concentration, were added to the wells followed by addition of 50 μL of peroxidase-conjugated human IgG (HRP-IgG). After 1 h incubation at 37° C., the plate was washed free times with PBS to remove unbound HRP-IgG. Bound HRP-IgG was detected by incubation with 100 μL of 2,2′-Azino-di[3-ethylbenzothiazoline sulfonate]diammonium salt crystals (ABTS) solution for 20 min in the dark at room temperature. The plate was then read at 405 nm on a EL 800, universal Microplate reader (Bio-Tek). Data was analyzed in Microsoft Excel and the concentration of compound which inhibits 50% binding of protein A (IC50) was calculated using Prism software.
Table 1 represents the IC50 of compounds tested in the competitive protein A binding ELISA assay, which consists of a side-by-side analysis in PBS and PBS-20% DMSO. DMSO was used to increase the solubility of some of the compounds.

[7] = molecular target: T2, TNFα / p75 TNFα receptor (CD120b); test: Binding ELISA: sTNF-R2 binding to plastic coated TNF-α; settings: for inhibition at 100 µM: 10^−4 M; for inhibition at 10 µM: 10^−5 M
Procedure: as §1

[8] = system: peripheral blood mononuclear leukocytes (PBML); test: PBML protein synthesis (leucine); assay type: cell-based, human; settings: Homo sapiens, Leukocyte
Source text: (§2) PBML were obtained from the peripheral blood of healthy volunteers. Blood was submitted to gradient centrifugation with Lympholyte-poly (Cedarlane, Hornby, Canada). The layer, which contains the mononuclear leukocytes, was collected and the cells washed three times in PBS. Cells were then suspended in RPMI (Gibco, Burlington, Canada) supplemented with […] (cyclone, Logan USA). Viability was greater than 99% as determined by trypan blue exclusion.
(§3) PBML were resuspended at 2×10^6 cells mL. 100 μL of PBML (2×10^5 cells) were incubated in a 96-well microtiter plate for 48 h in the presence or absence of compound or protein A. Cells were quiescent or stimulated with concanavalin A (ConA; T-cells) or pokeweed mitogen (PWM; B-cells). After incubation, cells were treated with MTT (cytotoxicity) or pulsed with 1 μCi of [^3]-thymidine (DNA synthesis), [^3H]-uridine (RNA synthesis) or [^3]-leucine (protein synthesis) for 6 h. Plates were harvested on a Tomteck and counted on a Microbeta β-counter.

PBML cytotoxicity (MTT) = assay type: cell-based; settings: human
Source text: as §2, §3

[9] = system: peripheral blood mononuclear leukocytes (PBML); test: PBML DNA synthesis (thymidine); assay type: cell-based, human; settings: for IC50: Homo sapiens, Leukocyte
Source text: as §2, §3

[10] = system: peripheral blood mononuclear leukocytes (PBML); test: PBML RNA synthesis (uridine); assay type: cell-based, human; settings: for IC50: Homo sapiens, Leukocyte
Source text: as §2, §3

[11] = Table 1, PBS-20% DMSO, read-out: IC50 (μM): Assay in PBS-20% DMSO
[12] = Table 1, PBS, read-out: IC50 (μM): Assay in PBS
[13] = resting and stimulated (ConA and PWM) PBML

T2 sequence (P01375 77-233 limits assumed): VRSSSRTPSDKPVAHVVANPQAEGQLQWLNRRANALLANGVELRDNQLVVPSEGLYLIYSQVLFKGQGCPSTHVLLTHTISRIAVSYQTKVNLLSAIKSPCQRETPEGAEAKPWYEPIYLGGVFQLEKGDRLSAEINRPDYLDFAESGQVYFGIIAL
T1 sequence (P01375 77-233 limits assumed): as above

| Compound | IC50 [2] [µM] | inhibition at 100 µM [3] [%] | inhibition at 10 µM [3] [%] | inhibition at 100 µM [4] [%] | inhibition at 10 µM [4] [%] | inhibition at 100 µM [5] [%] | inhibition at 10 µM [5] [%] | IC50 [6, 11] [µM] | IC50 [6, 12] [µM] | inhibition at 100 µM [7] [%] | inhibition at 10 µM [7] [%] | inhibition at 10 µM [1] [%] | inhibition at 20 µM [1] [%] | inhibition at 40 µM [1] [%] | inhibition at 5 µM [1] [%] | also measured |
| --- | --- | --- | --- | --- | --- | --- | --- | --- | --- | --- | --- | --- | --- | --- | --- | --- |
| COC(=O)c1ccccc1Nc1nc(NCCNc2nc(N)nc(NCCc3ccc(O)cc3)n2)nc(NCCc2ccc(O)cc2)n1 [Compound 3] | 28 | – | – | – | – | – | – | – | – | – | – | 32.7 | 44.6 | 33.9 | 0.5 | – |
| NCCc1ccc(Nc2nc(NCCNc3nc(Nc4ccccc4)nc(Nc4ccc(CCN)cc4)n3)nc(Nc3ccccc3)n2)cc1 [Compound 4] | 94.4 | 2.19 | 4.5 | -69.4 | -47.4 | -105 | -86.7 | 40 | 44 | 5.26 | 2.06 | 11.2 | 25.3 | 44 | 2.4 | – |
| Cc1ccccc1Nc1nc(NCCNc2nc(NCCc3ccc(O)cc3)nc(Nc3ccccc3C)n2)nc(NCCc2ccc(O)cc2)n1 [Compound 5] | 44 | 1.54 | 2.95 | 15.4 | 4.6 | 38.5 | 21.2 | 36 | – | 2.68 | 4.31 | 35.1 | 38.7 | 35.4 | 28.9 | – |

Second part, led by results:

| IC50 [2] [µM] | inhibition at 100 µM [3] [%] | inhibition at 10 µM [3] [%] | inhibition at 100 µM [4] [%] | inhibition at 10 µM [4] [%] | inhibition at 100 µM [5] [%] | inhibition at 10 µM [5] [%] | IC50 [6, 11] [µM] | IC50 [6, 12] [µM] | inhibition at 100 µM [7] [%] | inhibition at 10 µM [7] [%] | Compound | inhibition at 10 µM [1] [%] | inhibition at 20 µM [1] [%] | inhibition at 40 µM [1] [%] | inhibition at 5 µM [1] [%] | also measured |
| --- | --- | --- | --- | --- | --- | --- | --- | --- | --- | --- | --- | --- | --- | --- | --- | --- |
| – | – | – | 32.6 | 10.4 | 36.9 | 43.3 | 0.02 | 0.2 | – | – | Nc1ccc(CCNc2nc(NCCNc3nc(NCCc4ccc(N)cc4)nc(Nc4cccc(N)c4)n3)nc(Nc3cccc(N)c3)n2)cc1 [Compound 7] | – | – | – | – | IC50 ([8]; ConA stimulated PBML): > 10 µM; IC50 ([8]; PWM stimulated PBML): > 10 µM; IC50 ([8]; Resting PBML): > 10 µM; IC50 at 48 h (PBML cytotoxicity (MTT); ConA stimulated PBML): > 10 µM; IC50 at 48 h (PBML cytotoxicity (MTT); PWM stimulated PBML): > 10 µM; IC50 at 48 h (PBML cytotoxicity (MTT); Resting PBML): > 10 µM; IC50 ([9]; ConA stimulated PBML): 3.52 µM; IC50 ([9]; PWM stimulated PBML): 1.28 µM; IC50 ([9]; Resting PBML): 3.6 µM; effect on DNA synthesis (in words) [9, 13]: suppress; IC50 ([10]; ConA stimulated PBML): 1.5 µM; IC50 ([10]; PWM stimulated PBML): 1.78 µM; IC50 ([10]; Resting PBML): 1.12 µM; effect on RNA synthesis (in words) [10, 13]: suppress; IC50 ([6]; Table 2, PBS-20% DMSO, n = 5 or 6, read-out: IC50 (n = 5 or 6) PBS-20% DMSO): 0.0217 µM; IC50 ([6]; Table 2, PBS, n = 5 or 6, read-out: IC50 (n = 5 or 6) PBS): 0.187 µM |
| 3.4 | – | – | -8.4 | -35.7 | 3.8 | -30.4 | 39 | 23 | – | – | CN(C)CCCC(=O)Oc1ccc(CCNc2nc(NCCNc3nc(NCCc4ccc(OC(=O)CCCN(C)C)cc4)nc(Nc4ccccc4)n3)nc(Nc3ccccc3)n2)cc1 [Compound 12] | -21.1 | -28.4 | -30 | 36.9 | – |
